The results in this text go back to paper PMC4544722 (Drug Design, Development and Therapy, 2015).

Each structure is given as a SMILES string.

A short description of this series: everted gut sac model in vitro. The following applies: jejunum, ECH 0.09 mg/mL; verapamil 0.2 mg/mL, borneol 0.1 mg/mL, pennyroyal 0.1 mL/mL, clove oil 0.1 mL/mL.

Take `CC1(C)C2CCC1(C)C(O)C2` (stereo not shown) [borneol]: the “effect on ECH absorption parameters F and Papp versus control” value is on record as “neither borneol nor pennyroyal had significant absorption enhancing effect”.
